Consider one compound from patent publication US5219854A, “Blood platelet-decreasing method” (Nissan Chemical Industries Ltd., priority 1991, dated 1993).

Data set [1] in a line: Subjective symptoms, diagnosis by doctor, scientific and clinical examination during repeated oral administration. Type of data set: in vivo, human (healthy adult males). The following applies: oral 40 mg three times a day for 7 days; until 29th day after the termination. On the procedure: (§1) To each of six healthy adult males (23 to 32 years age, average: 28 years age), two tablets each containing 20 mg of 4-bromo-5-(3-ethoxy-4-methoxybenzylamino)-3(2H)-pyridazinone (Compound A) were orally administered (40 mg) three times a day (120 mg) in the morning, noon and evening for 7 days (on the 7th day, administered only in the morning). Examinations were conducted with respect to the following four items from the time before the administration to the time until the 29th day after the termination of administration.
Everyday during the period of examination, each testee records the subjective symptoms.
A doctor makes diagnoses by asking, or ansculating and percussioning, and records their observations.
Blood pressure, pulse rate, body temperature, breathing rate, ECG (12 derivatives), pulmonary function (FVC, FEV1.0%), and visual or acoustic observation
(§2) Erythrocyte count, leukocyte count, hemoglobin quantity, hematocrit value, blood platelet count, reticulocyte count, leukocyte fraction and prothrombin time
Total protein, albumin, A/G ratio (protein fraction), BUN, creatinine, uric acid, total cholesterol, neutral fats, Na, K, Cl, Al-P, LAP, GOT, GPT, LDH, γ-GTP, ZTT, TTT, CPK, total bilirubin, direct bilirubin and blood sugar
Specific gravity, pH, bilirubin, urobilinogen, ketone body, sugar, protein and sedimentation

The nature of data set [2]: Acute toxicity test after single oral administration, mouse. The following applies: in vivo, mouse (ICR strain, 6 weeks old), read-out: 50% lethal dose (LD50). As to the method:
(§3) These compounds have low toxicities and thus may be sufficiently used for medical products. For example, the 50% lethal dose (LD50) in the acute toxicity tests after single oral administration of 4 brome-5-(3-ethoxy-4-methoxybenzylamino)-3(2H)-pyridazinone as a typical compound thereof, was 2,000 mg/kg with respect to each of mouse (ICR strain, 6 weeks old), rat (SD strain, 6 weeks old) and dog (beagle, 6 months old).

The nature of data set [3]: Acute toxicity test after single oral administration, dog. The following applies: in vivo, dog (beagle, 6 months old), read-out: 50% lethal dose (LD50). On the procedure:
as §3

Data set [4] in a line: Acute toxicity test after single oral administration, rat. Conditions: in vivo, rat (SD strain, 6 weeks old), read-out: 50% lethal dose (LD50). On the procedure:
as §3

A further data set relates to blood platelet count. As to the kind of experiment: Change of blood platelet count at the time of repeated administration of Compound A. Type of data set: in vivo, human (healthy adult males). As to the method:
as §1
(1) Hematological Examination
as §2

By LD50 is commonly meant the dose at which mortality reaches 50%.

With `CCOc1cc(CNc2cn[nH]c(=O)c2Br)ccc1OC` [Compound A, 4-bromo-5-(3-ethoxy-4-methoxybenzylamino)-3(2H)-pyridazinone], in data set [1], the “Symptoms or changes in all items of examinations other than the blood platelet count” value is recorded as “no problematic symptom or change has been observed”. For the same compound, the LD50 in data set [2], in data set [3] and in data set [4] was 2000 mg/kg throughout. Further, the “Blood platelet count, average value ± a standard deviation” value in the data set with blood platelet count (1st day after the termination of administration, oral 40 mg three times a day for 7 days, ***p < 0.001 vs before administration (paired t-test)) is listed as 14.1 ± 2.0 ×10^4 /μl; in the data set on blood platelet count (6th day after the termination of administration, oral 40 mg three times a day for 7 days, **p < 0.01 vs before administration (paired t-test)), 20.4 ± 2.2 ×10^4 /μl; in the data set on blood platelet count (29th day after the termination of administration, oral 40 mg three times a day for 7 days), 29.2 ± 3.9 ×10^4 /μl; in the data set on blood platelet count (3 days after the initiation of administration, oral 40 mg three times a day (120 mg/day), **p < 0.01 vs before administration (paired t-test)), 25.0 ± 2.7 ×10^4 /μl; in the data set on blood platelet count (before the initiation of administration (baseline), six healthy adult males) it was 27.6 ± 2.6 ×10^4 /μl.
